Results taken from ChEMBL document CHEMBL1126045, “Alanine series of ovine corticotropin releasing factor (oCRF): a structure-activity relationship study” (J Med Chem, 1992).

Legend:
Pituitary gland cell [1] = test: In vitro ability of the compound (peptide) to stimulate ACTH release by rat anterior pituitary cells in relative to Ovine corticotropin releasing factor (oCRF) in experiment 2; type: cell-based; set-up: unit not given here
Pituitary gland cell [2] = test: In vitro ability of the compound (peptide) to stimulate ACTH release by rat anterior pituitary cells in relative to Ovine corticotropin releasing factor (oCRF) in experiment 1; type: cell-based; set-up: unit not given here

CC[C@H](C)[C@H](NC(=O)[C@H](CC(=O)O)NC(=O)[C@H](CC(C)C)NC(=O)[C@H](CC(C)C)NC(=O)[C@H](CCCCN)NC(=O)[C@H](CCCN=C(N)N)NC(=O)[C@H](CC(N)=O)NC(=O)[C@H](CO)NC(=O)[C@H](Cc1c[nH]cn1)NC(=O)[C@H](C)NC(=O)[C@H](CCC(N)=O)NC(=O)[C@H](CCC(N)=O)NC(=O)[C@H](C)NC(=O)[C@H](CC(C)C)NC(=O)[C@H](CCC(N)=O)NC(=O)[C@H](CC(=O)O)NC(=O)[C@H](C)NC(=O)[C@H](CCCCN)NC(=O)[C@@H](NC(=O)[C@H](CCSC)NC(=O)[C@H](CCC(=O)O)NC(=O)[C@H](CC(C)C)NC(=O)[C@@H](NC(=O)[C@H](CCC(=O)O)NC(=O)[C@H](CCCN=C(N)N)NC(=O)[C@H](CC(C)C)NC(=O)[C@H](CC(C)C)NC(=O)[C@H](Cc1c[nH]cn1)NC(=O)[C@H](Cc1ccccc1)NC(=O)[C@@H](NC(=O)[C@H](CC(C)C)NC(=O)[C@H](CC(=O)O)NC(=O)[C@H](C)NC(=O)[C@H](CO)NC(=O)[C@@H](NC(=O)[C@@H]1CCCN1C(=O)[C@@H]1CCCN1C(=O)[C@H](CCC(=O)O)NC(=O)[C@H](CCC(N)=O)NC(=O)[C@@H](N)CO)[C@@H](C)CC)[C@@H](C)O)C(C)C)[C@@H](C)O)C(=O)N[C@@H](C)C(N)=O
Relative potency (Pituitary gland cell [1]): 0.005
Relative potency (Pituitary gland cell [2]): 0.03

CC[C@H](C)[C@H](NC(=O)[C@H](CC(=O)O)NC(=O)[C@H](CC(C)C)NC(=O)[C@H](CC(C)C)NC(=O)[C@H](CCCCN)NC(=O)[C@H](CCCN=C(N)N)NC(=O)[C@H](CC(N)=O)NC(=O)[C@H](CO)NC(=O)[C@H](Cc1c[nH]cn1)NC(=O)[C@H](C)NC(=O)[C@H](CCC(N)=O)NC(=O)[C@H](CCC(N)=O)NC(=O)[C@H](C)NC(=O)[C@H](CC(C)C)NC(=O)[C@H](CCC(N)=O)NC(=O)[C@H](CC(=O)O)NC(=O)[C@H](C)NC(=O)[C@H](CCCCN)NC(=O)[C@@H](NC(=O)[C@H](CCSC)NC(=O)[C@H](CCC(=O)O)NC(=O)[C@H](CC(C)C)NC(=O)[C@@H](NC(=O)[C@H](CCC(=O)O)NC(=O)[C@H](CCCN=C(N)N)NC(=O)[C@H](CC(C)C)NC(=O)[C@H](CC(C)C)NC(=O)[C@H](Cc1c[nH]cn1)NC(=O)[C@H](Cc1ccccc1)NC(=O)[C@@H](NC(=O)[C@H](CC(C)C)NC(=O)[C@H](CC(=O)O)NC(=O)[C@H](CC(C)C)NC(=O)[C@H](C)NC(=O)[C@@H](NC(=O)[C@@H]1CCCN1C(=O)[C@@H]1CCCN1C(=O)[C@H](CCC(=O)O)NC(=O)[C@H](CCC(N)=O)NC(=O)[C@@H](N)CO)[C@@H](C)CC)[C@@H](C)O)C(C)C)[C@@H](C)O)C(=O)N[C@@H](C)C(N)=O
Relative potency (Pituitary gland cell [1]): 0.21
Relative potency (Pituitary gland cell [2]): 0.16

H-SQEPPISLDLTFHALREVLEMTKADQLAQQAHSNRKLLDIA-NH2
Relative potency (Pituitary gland cell [1]): 0.001
Relative potency (Pituitary gland cell [2]): 0.001

H-SQEPPISLDLTFHLLREVLAMTKADQLAQQAHSNRKLLDIA-NH2
Relative potency (Pituitary gland cell [1]): 1.6
Relative potency (Pituitary gland cell [2]): 2.8

H-SQEPPISLDLTFHLLREVLEMTKADQAAQQAHSNRKLLDIA-NH2
Relative potency (Pituitary gland cell [1]): 0.38
Relative potency (Pituitary gland cell [2]): 0.6

H-SQEPPISLDLTFHLLREVLEMTKADQLAAQAHSNRKLLDIA-NH2
Relative potency (Pituitary gland cell [1]): 1.4
Relative potency (Pituitary gland cell [2]): 1

H-SQEPPISLDLTFHLLREVLEMTKADQLAQQAHSNRKLADIA-NH2
Relative potency (Pituitary gland cell [1]): 0.0002
Relative potency (Pituitary gland cell [2]): 0.004
